Where two headings read alike, the source gives them in different places. One block for each compound: values may come before it.
Columns and labels:
[1] = system: RPMI-8226; assay: Tumor cell proliferation inhibition (CellTiter-Meiluncell Luminescent Cell Viability Assay); format: cell-based; details: Homo sapiens, 96 hours, Table I-3, EGFR inhibitors; for inhibition at 0.01 µM: 10 nM, read-out: Inhibition Rate at 10 nM (%); for inhibition at 0.5 µM: 500 nM, read-out: Inhibition Rate at 500 nM (%)
Procedure, shortened: (§1)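 Following overnight seeding, tumor cells received serial compound dilutions to final levels that included 10 nM and 500 nM. Viability was assessed by luminescence at the end of the specified exposure time. Cultures were kept at 37°C with 5% CO2.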

[2] = system: MV-4-11; assay: as above; format: cell-based; details: Homo sapiens, 96 hours, Table I-3, EGFR inhibitors; for inhibition at 0.01 µM: MV4-11, 10 nM, read-out: Inhibition Rate at 10 nM (%); for inhibition at 0.5 µM: MV4-11, 500 nM, read-out: Inhibition Rate at 500 nM (%)
Procedure, shortened: as §1

[3] = system: EGFR; assay: Western blot, target protein degradation in H1975 Cell; format: cell-based, Human; details: substrate protein remaining %, treated at 500 nM and 50 nM, 24 hours
Protocol: (§2) Conventional Western blot assay was performed to evaluate the effects of the compounds of the present disclosure on the expression of target proteins in cells.
(§3) (1) Cell Seeding and Protein Harvesting: The selected cells were processed according to the cell seeding procedure and protein harvesting procedure in Table II-2. Table II-2 Cell Seeding and Protein Harvesting Procedures
(§4) (2) To the collected supernatant, 5X SDS sample loading buffer was added, followed by denaturation at 95°C for 5 minutes. The denatured samples were then separated by SDS-PAGE electrophoresis on a polyacrylamide gel. Proteins were transferred to a nitrocellulose membrane (0.45 µm NC membrane), blocked with blocking buffer at room temperature for 1 hour, and subjected to antibody incubation and development procedures according to the antibody manufacturer's instructions (Cell Signaling Technology).
(§5) Half-Maximal Degradation Concentration value (the drug concentration required for degrading proteins by 50%, abbreviated as DC50) reads method: comparing the grayscale values of Western blot bands from drug-treated samples with those from blank DMSO-treated controls, and identifying the drug concentration range at which the grayscale value is half that of the DMSO-treated control bands.
(§6) DC50 values can be calculated using ImageJ software to measure grayscale values of Western blot bands from drug-treated samples. The concentration-response curve is fitted to estimate the drug concentration corresponding to half the grayscale value.
(§7) Target protein remaining (%) refers to the percentage of target protein remaining in cells after treatment with protein degrader compounds.
(§8) Calculation method for target protein remaining (%): Use ImageJ software to measure grayscale values of Western blot bands from drug (protein degrader)-treated samples. The grayscale value of drug-treated bands is divided by that of internal control protein bands, and the resulting quotient is normalized to obtain the relative percentage of remaining target protein after protein degrader treatment. Target protein degradation rate(%) = 1−target protein remaining(%). [formula]

[4] = molecular target: T1, human Cereblon WT GST-tagged protein (Homo sapiens, UniProt Q96SW2); assay: CRBN-binding affinity, HTRF (CEREBLON BINDING kit); details: for inhibition at 0.5 µM: read-out: Inhibition Rate at 0.5 µM (%); for inhibition at 2 µM: read-out: Inhibition Rate at 2 µM (%)
T1 construct: purchased CISBIO 64BDCRBNPEH
T1 sequence (Q96SW2 whole entry): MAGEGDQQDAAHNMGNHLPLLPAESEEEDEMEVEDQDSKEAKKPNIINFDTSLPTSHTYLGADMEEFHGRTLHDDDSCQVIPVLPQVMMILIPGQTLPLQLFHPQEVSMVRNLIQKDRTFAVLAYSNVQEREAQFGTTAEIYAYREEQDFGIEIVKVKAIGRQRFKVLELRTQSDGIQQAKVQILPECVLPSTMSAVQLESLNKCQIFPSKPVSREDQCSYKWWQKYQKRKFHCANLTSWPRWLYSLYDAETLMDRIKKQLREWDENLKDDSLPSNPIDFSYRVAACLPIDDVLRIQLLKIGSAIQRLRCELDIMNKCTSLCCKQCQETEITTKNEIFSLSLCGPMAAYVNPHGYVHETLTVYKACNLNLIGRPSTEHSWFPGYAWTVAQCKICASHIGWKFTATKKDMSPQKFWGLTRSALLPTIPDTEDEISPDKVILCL
Procedure, shortened: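 Readout is homogeneous time-resolved fluorescence, measuring displacement of a thalidomide-red tracer from GST-tagged Cereblon detected by a europium anti-GST antibody. Compounds were tested at final 2 µM and 0.5 µM after dilution in diluent #9 (1X).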

[5] = system: H1975; assay: Tumor cell proliferation inhibition (CellTiter-Meiluncell Luminescent Cell Viability Assay); format: cell-based; details: Homo sapiens, 96 hours, Table I-3, EGFR inhibitors
Procedure, shortened: (§9)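 Luminescent viability read-out (CellTiter-Meiluncell) after compound exposure for a specified time; IC50 determined. Seeding was done the day before dosing with serially diluted compound, final concentrations including 500 nM and 10 nM. Culture at 37°C, 5% CO2.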

[6] = molecular target: T2, BCR-ABL (Homo sapiens, UniProt P00519+P11274+Q96SW2, E27K); assay: Western blot, target protein degradation in K562 Cell; format: cell-based; details: substrate protein remaining %, treated at 500 nM and 50 nM, 24 hours
T2 construct: endogenous in cells; host or cells: K562
T2 sequence (P11274+P00519 fused, stated change not applied): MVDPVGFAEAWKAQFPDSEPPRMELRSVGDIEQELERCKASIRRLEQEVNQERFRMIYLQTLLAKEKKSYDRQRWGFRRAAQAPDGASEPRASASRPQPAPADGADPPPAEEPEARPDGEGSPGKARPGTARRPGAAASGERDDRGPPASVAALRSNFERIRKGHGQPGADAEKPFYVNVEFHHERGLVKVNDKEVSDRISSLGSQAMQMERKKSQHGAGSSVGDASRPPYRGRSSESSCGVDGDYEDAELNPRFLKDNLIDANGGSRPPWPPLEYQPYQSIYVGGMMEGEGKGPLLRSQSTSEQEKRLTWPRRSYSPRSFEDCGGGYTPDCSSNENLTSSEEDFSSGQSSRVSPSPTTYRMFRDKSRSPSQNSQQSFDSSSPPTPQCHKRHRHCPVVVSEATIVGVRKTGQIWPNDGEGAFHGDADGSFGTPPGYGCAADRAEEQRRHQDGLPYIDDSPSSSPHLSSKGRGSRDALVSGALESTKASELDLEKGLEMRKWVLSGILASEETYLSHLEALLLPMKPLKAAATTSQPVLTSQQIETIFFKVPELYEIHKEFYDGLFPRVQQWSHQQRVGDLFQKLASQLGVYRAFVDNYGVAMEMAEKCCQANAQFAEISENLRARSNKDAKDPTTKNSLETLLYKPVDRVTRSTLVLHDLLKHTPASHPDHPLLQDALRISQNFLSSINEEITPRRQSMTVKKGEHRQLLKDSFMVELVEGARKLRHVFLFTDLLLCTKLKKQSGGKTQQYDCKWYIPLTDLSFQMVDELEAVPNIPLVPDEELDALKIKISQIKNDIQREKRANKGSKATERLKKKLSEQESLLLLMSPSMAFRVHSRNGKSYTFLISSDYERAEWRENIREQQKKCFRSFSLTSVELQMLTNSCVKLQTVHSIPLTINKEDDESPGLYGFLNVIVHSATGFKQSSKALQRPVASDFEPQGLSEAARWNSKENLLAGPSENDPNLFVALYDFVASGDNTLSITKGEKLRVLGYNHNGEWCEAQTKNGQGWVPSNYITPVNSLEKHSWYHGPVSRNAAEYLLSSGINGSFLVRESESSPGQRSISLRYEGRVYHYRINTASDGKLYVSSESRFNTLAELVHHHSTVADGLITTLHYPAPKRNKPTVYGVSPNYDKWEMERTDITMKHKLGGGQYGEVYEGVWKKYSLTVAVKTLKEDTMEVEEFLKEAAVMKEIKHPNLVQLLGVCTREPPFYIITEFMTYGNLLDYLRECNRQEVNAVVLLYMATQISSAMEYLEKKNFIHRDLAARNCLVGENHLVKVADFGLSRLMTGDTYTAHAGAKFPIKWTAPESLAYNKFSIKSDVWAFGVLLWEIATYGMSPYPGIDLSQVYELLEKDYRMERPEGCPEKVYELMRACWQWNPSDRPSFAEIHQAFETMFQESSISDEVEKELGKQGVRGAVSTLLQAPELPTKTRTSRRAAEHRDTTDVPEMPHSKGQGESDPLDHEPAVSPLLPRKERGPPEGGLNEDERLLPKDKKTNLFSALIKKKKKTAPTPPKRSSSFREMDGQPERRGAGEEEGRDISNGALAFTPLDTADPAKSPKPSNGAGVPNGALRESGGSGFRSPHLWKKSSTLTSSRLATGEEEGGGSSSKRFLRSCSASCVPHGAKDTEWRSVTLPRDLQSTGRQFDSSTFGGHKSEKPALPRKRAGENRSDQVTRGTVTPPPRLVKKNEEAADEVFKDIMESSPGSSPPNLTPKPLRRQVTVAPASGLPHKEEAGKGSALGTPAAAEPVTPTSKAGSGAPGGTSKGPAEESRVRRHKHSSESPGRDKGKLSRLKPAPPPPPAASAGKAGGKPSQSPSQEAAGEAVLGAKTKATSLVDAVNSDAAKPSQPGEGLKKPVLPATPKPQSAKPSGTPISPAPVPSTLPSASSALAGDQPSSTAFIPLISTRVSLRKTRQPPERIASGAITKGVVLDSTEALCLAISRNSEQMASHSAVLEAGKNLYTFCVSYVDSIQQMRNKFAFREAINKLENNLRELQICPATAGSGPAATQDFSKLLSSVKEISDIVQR
T2 sequence (Q96SW2 whole entry, stated change not applied): as the sequence (Q96SW2 whole entry) above
T2 sequence (Q16531 whole entry partner): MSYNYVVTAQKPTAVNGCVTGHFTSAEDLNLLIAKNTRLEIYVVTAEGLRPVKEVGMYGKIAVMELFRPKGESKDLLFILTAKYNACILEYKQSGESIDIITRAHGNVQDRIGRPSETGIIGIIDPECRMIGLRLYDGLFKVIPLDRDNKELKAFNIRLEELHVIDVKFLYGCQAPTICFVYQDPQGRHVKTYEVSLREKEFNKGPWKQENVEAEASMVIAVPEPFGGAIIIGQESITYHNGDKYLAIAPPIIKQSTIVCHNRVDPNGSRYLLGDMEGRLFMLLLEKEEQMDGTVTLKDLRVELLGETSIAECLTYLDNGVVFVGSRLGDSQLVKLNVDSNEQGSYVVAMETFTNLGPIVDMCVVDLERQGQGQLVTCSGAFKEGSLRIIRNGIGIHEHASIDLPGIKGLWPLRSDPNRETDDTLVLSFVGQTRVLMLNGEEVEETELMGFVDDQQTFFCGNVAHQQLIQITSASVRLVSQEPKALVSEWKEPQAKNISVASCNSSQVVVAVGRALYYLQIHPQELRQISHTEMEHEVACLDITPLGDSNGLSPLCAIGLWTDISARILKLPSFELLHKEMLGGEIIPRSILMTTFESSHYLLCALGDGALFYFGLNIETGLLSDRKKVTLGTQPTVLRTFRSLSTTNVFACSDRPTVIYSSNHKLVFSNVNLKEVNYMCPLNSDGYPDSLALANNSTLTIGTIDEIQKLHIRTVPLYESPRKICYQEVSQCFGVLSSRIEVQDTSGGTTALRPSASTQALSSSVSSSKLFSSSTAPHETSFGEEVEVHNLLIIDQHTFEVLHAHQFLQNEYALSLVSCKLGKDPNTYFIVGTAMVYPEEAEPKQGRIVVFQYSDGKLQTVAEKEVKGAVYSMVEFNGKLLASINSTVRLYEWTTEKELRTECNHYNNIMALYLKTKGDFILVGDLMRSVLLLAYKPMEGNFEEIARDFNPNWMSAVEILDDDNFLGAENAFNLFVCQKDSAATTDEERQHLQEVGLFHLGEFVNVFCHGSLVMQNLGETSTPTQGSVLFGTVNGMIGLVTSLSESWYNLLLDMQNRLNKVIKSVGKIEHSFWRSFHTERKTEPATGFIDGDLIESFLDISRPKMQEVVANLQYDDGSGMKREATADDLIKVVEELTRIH
Protocol: as §2, §3, §4, §5, §6, §7, §8

[7] = system: TMD8; assay: Tumor cell proliferation inhibition (CellTiter-Meiluncell Luminescent Cell Viability Assay); format: cell-based; details: Homo sapiens, 96 hours; for inhibition at 0.01 µM: 10 nM, read-out: Inhibition Rate at 10 nM (%); for inhibition at 0.5 µM: 500 nM, read-out: Inhibition Rate at 500 nM (%)
Procedure, shortened: as §9

[8] = system: SW620; assay: as above; format: cell-based; details: Homo sapiens, 96 hours, Table I-4, BTK inhibitors; for inhibition at 0.01 µM: SW-620, 10 nM, read-out: Inhibition Rate at 10 nM (%); for inhibition at 0.5 µM: SW-620, 500 nM, read-out: Inhibition Rate at 500 nM (%)
Procedure, shortened: as §1

[9] = system: CFPAC-1; assay: as above; format: cell-based; details: Homo sapiens, 96 hours, Table I-10, BCR-ABL inhibitors
Procedure, shortened: as §9

inhibition at 0.5 µM [4]: 60 to 80%
inhibition at 2 µM [4]: 80 to 100%
SMILES: COc1cc(N2CCC(N(C)Cc3ccc4c(c3)C(=S)N(C3CCC(=O)NC3=O)C4)CC2)c(C)cc1Nc1ncc(Br)c(Nc2ccc3nccnc3c2P(C)(C)=O)n1 (stereo not shown) [GT-08761, 3-(6-(((1-(4-((5-bromo-4-((5-(dimethylphosphoryl)quinoxalin-6-yl)amino)pyrimidin-2-yl)amino)-5-methoxy-2-methylphenyl)piperidin-4-yl)(methyl)amino)methyl)-1-thioxoisoindolin-2-yl)piperidine-2,6-dione]
inhibition at 0.01 µM [1]: 20 to 30%
inhibition at 0.5 µM [1]: 40 to 50%
inhibition at 0.01 µM [2]: 5 to 10%
inhibition at 0.5 µM [2]: 60 to 70%
Degradation of substrate protein EGFR [3]: A (0% ≤ substrate protein remaining % ≤ 80%)

inhibition at 0.5 µM [4]: 60 to 80%
inhibition at 2 µM [4]: 80 to 100%
SMILES: COc1cc(N2CCC(N3CCN(Cc4ccc5c(c4)C(=S)N(C4CCC(=O)NC4=O)C5)CC3)CC2)c(C)cc1Nc1ncc(Br)c(Nc2ccc3nccnc3c2P(C)(C)=O)n1 (stereo not shown) [GT-08762, 3-(6-((4-(1-(4-((5-bromo-4-((5-(dimethylphosphoryl)quinoxalin-6-yl)amino)pyrimidin-2-yl)amino)-5-methoxy-2-methylphenyl)piperidin-4-yl)piperazin-1-yl)methyl)-1-thioxoisoindolin-2-yl)piperidine-2,6-dione]
inhibition at 0.01 µM [1]: 30 to 40%
inhibition at 0.5 µM [1]: 40 to 50%
inhibition at 0.01 µM [2]: 30 to 40%
inhibition at 0.5 µM [2]: 80 to 100%
Degradation of substrate protein EGFR [3]: A (0% ≤ substrate protein remaining % ≤ 80%)

inhibition at 0.5 µM [4]: 30 to 40%
inhibition at 2 µM [4]: 80 to 100%
SMILES: COC1CCN(c2nccc(Nc3cc4c(cn3)c(N3CCN(Cc5ccc6c(c5)C(=S)N(C5CCC(=O)NC5=O)C6)CC3)nn4C(C)C)n2)CC1 (stereo not shown) [GT-08763, 3-(6-((4-(1-isopropyl-6-((2-(4-methoxypiperidin-1-yl)pyrimidin-4-yl)amino)-1H-pyrazolo[4,3-c]pyridin-3-yl)piperazin-1-yl)methyl)-1-thioxoisoindolin-2-yl)piperidine-2,6-dione]
inhibition at 0.01 µM [1]: 30 to 40%
inhibition at 0.5 µM [1]: 50 to 60%
inhibition at 0.01 µM [2]: 30 to 40%
inhibition at 0.5 µM [2]: 50 to 60%
Degradation of substrate protein EGFR [3]: A (0% ≤ substrate protein remaining % ≤ 80%)

inhibition at 0.5 µM [4]: 60 to 80%
inhibition at 2 µM [4]: 60 to 80%
SMILES: O=C1CCC(N2Cc3ccc(CN4C[C@H]5C[C@@H]4CN5c4ccc(-c5cc(F)c6c(c5)C(=O)N(C(C(=O)Nc5nccs5)c5ncn7c5CCC7)C6)cc4)cc3C2=S)C(=O)N1 (stereo partly drawn) [GT-08764, 2-(6,7-dihydro-5H-pyrrolo[1,2-c]imidazol-1-yl)-2-(6-(4-((1R,4R)-5-((2-(2,6-dioxopiperidin-3-yl)-3-thioxoisoindolin-5-yl)methyl)-2,5-diazabicyclo[2.2.1]heptan-2-yl)phenyl)-4-fluoro-1-oxoisoindolin-2-yl)-N-(thiazol-2-yl)acetamide]
inhibition at 0.01 µM ([5]; NCI-H1975, 10 nM, read-out: Inhibition Rate at 10 nM (%)): 20 to 30%
inhibition at 0.5 µM ([5]; NCI-H1975, 500 nM, read-out: Inhibition Rate at 500 nM (%)): 50 to 60%
Degradation of substrate protein EGFR [3]: A (0% ≤ substrate protein remaining % ≤ 80%)

SMILES: Cc1ccc(C(=O)Nc2ccc(N3CCN(Cc4ccc5c(c4)CN(C4CCC(=O)NC4=O)C5=S)CC3)c(C(F)(F)F)c2)cc1C#Cc1cnc2cccnn12 (stereo not shown) [GT-08768, N-(4-(4-((2-(2,6-dioxopiperidin-3-yl)-1-thioxoisoindolin-5-yl)methyl)piperazin-1-yl)-3-(trifluoromethyl)phenyl)-3-(imidazo[1,2-b]pyridazin-3-ylethynyl)-4-methylbenzamide]
Degradation of substrate protein BCR-ABL [6]: A (0% ≤ substrate protein remaining % ≤ 80%)

inhibition at 0.5 µM [4]: 40 to 53%
inhibition at 2 µM [4]: 60 to 80%
SMILES: O=C1CCC(N2Cc3c(CN4CCN(C5CCN(c6ncc(C(=O)Nc7ccc(OC(F)(F)Cl)cc7)cc6-c6cc[nH]n6)CC5)CC4)cccc3C2=S)C(=O)N1 (stereo not shown) [GT-08776, N-(4-(chlorodifluoromethoxy)phenyl)-6-(4-(4-((2-(2,6-dioxopiperidin-3-yl)-1-thioxoisoindolin-4-yl)methyl)piperazin-1-yl)piperidin-1-yl)-5-(1H-pyrazol-3-yl)nicotinamide]
Degradation of substrate protein BCR-ABL [6]: A (0% ≤ substrate protein remaining % ≤ 80%)

inhibition at 0.5 µM [4]: 40 to 53%
inhibition at 2 µM [4]: 80 to 100%
SMILES: CC(C)(C)c1cnc(CSc2cnc(NC(=O)C3CCN(Cc4ccc5c(c4)CN(C4CCC(=O)NC4=O)C5=S)CC3)s2)o1 (stereo not shown) [GT-09435, N-(5-(((5-(tert-butyl)oxazol-2-yl)methyl)thio)thiazol-2-yl)-1-((2-(2,6-dioxopiperidin-3-yl)-1-thioxoisoindolin-5-yl)methyl)piperidine-4-carboxamide]
inhibition at 0.01 µM ([7]; Table I-7, CDK9 inhibitors): 0 to 5%
inhibition at 0.5 µM ([7]; Table I-7, CDK9 inhibitors): 70 to 80%

inhibition at 0.5 µM [4]: 40 to 53%
inhibition at 2 µM [4]: 80 to 100%
SMILES: Nc1ncnc2c1c(-c1ccc(Oc3ccccc3)cc1)nn2C1CCN(Cc2ccc3c(c2)CN(C2CCC(=O)NC2=O)C3=S)CC1 (stereo not shown) [GT-09436, 3-(5-((4-(4-amino-3-(4-phenoxyphenyl)-1H-pyrazolo[3,4-d]pyrimidin-1-yl)piperidin-1-yl)methyl)-1-thioxoisoindolin-2-yl)piperidine-2,6-dione]
inhibition at 0.01 µM ([7]; Table I-4, BTK inhibitors): 15 to 20%
inhibition at 0.5 µM ([7]; Table I-4, BTK inhibitors): 80 to 100%
inhibition at 0.01 µM [8]: 70 to 80%
inhibition at 0.5 µM [8]: 80 to 100%

SMILES: Cc1ccc(C(=O)Nc2ccc(CN3CCN(Cc4ccc5c(c4)C(=S)N(C4CCC(=O)NC4=O)C5)CC3)c(C(F)(F)F)c2)cc1C#Cc1cnc2cccnn12 (stereo not shown) [GT-09439, N-(4-((4-((2-(2,6-dioxopiperidin-3-yl)-3-thioxoisoindolin-5-yl)methyl)piperazin-1-yl)methyl)-3-(trifluoromethyl)phenyl)-3-(imidazo[1,2-b]pyridazin-3-ylethynyl)-4-methylbenzamide]
inhibition at 0.01 µM ([9]; 10 nM, read-out: Inhibition Rate at 10 nM (%)): 5 to 10%
inhibition at 0.5 µM ([9]; 500 nM, read-out: Inhibition Rate at 500 nM (%)): 60 to 70%

SMILES: C=CC(=O)Nc1cc(Nc2nccc(-c3cn(C)c4ccccc34)n2)c(OC)cc1N(C)CCN(C)C [Osimertinib, reference compound]
Degradation of substrate protein EGFR [3]: No degradation

inhibition at 0.5 µM [4]: 0 to 10%
inhibition at 2 µM [4]: 10 to 20%
SMILES: C=CC(=O)N1CCC[C@@H](n2nc(-c3ccc(Oc4ccccc4)cc3)c3c(N)ncnc32)C1 [ibrutinib, Ibrutinib, reference compound]
inhibition at 0.01 µM ([7]; Table I-4, BTK inhibitors): -5 to 0%
inhibition at 0.5 µM ([7]; Table I-4, BTK inhibitors): 30 to 40%
inhibition at 0.01 µM [8]: -5 to 0%
inhibition at 0.5 µM [8]: 0 to 5%

Source: patent EP4745138A1, “THIO-GLUTARIMIDO ISOINDOLINONE DERIVATIVE, BIFUNCTIONAL PROTEIN DEGRADER CONTAINING SAME, AND USES THEREOF” (Gluetacs Therapeutics (Shanghai) Co., Ltd., priority 2023, dated 2025)
